Reference: patent US20230109839A1, “THERAPEUTIC AGENT FOR TAUOPATHIES” (SUMITOMO PHARMA CO., LTD., priority 2020, published 2023)

Each compound was assayed against T1, human Nav1.1 (Homo sapiens, UniProt P35498) (assay: Amplification of Nav1.1-derived voltage-gated sodium current (Nav1.1 current), automated patch clamp (Test 1)). Details: Concentration for evaluation 1 μM; HEK293 cell line stably expressing human Nav1.1.
T1 construct: host or cells: HEK293
Type: cell-based
Procedure, shortened: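 Compound-induced change in ramp-evoked sodium current peak and AUC was expressed as 100×post/pre ratio minus 100. Recordings used automated patch clamp in voltage-clamp mode on a stable human Nav1.1 HEK293 line, including only cells above 500 pA. Compounds were delivered in extracellular fluid containing 1% DMSO.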

First: COC1CCN(c2nccc3c2CCN3C(=O)Cn2nc(C3=CCC(C)CC3)ccc2=O)CC1 (centres unmarked) [Example 309]
Second: CC1CC=C(c2ccc(=O)n(CC(=O)N3CCc4c3ccnc4N3CCOCC3)n2)CC1 (centres unmarked) [Example 319]
The “Nav1.1 current amplification rate (%)” value of the first is lower: 71% for the first, 134% for the second.

Compared with CC(=O)N1CC=C(c2nccc3c2CCN3C(=O)Cn2nc(C3=CCC(C)CC3)ccc2=O)C1 (centres unmarked) [Example 310], CC1CC=C(c2ccc(=O)n(CC(=O)N3CCc4c(CNC5CCC5)cccc43)n2)CC1 (centres unmarked) [Example 315] is lower in “Nav1.1 current amplification rate (%)” value: 87% for the first, 19% for the second.

First: CC1CC=C(c2ccc(=O)n(CC(=O)N3CCc4c(-c5cn[nH]c5)cncc43)n2)CC1 (centres unmarked) [Example 311]
Second: COCCNCc1cccc2c1CCN2C(=O)Cn1nc(C2=CCC(C)CC2)ccc1=O (centres unmarked) [Example 314]
The “Nav1.1 current amplification rate (%)” value of the first is higher: 265% for the first, 9% for the second.

Going from CC1CC=C(c2ccc(=O)n(CC(=O)N3CCc4c(CNCC(F)F)cccc43)n2)CC1 (centres unmarked) [Example 312] to CC1CC=C(c2ccc(=O)n(CC(=O)N3CCc4c(CNC5COC5)cccc43)n2)CC1 (centres unmarked) [Example 313], the “Nav1.1 current amplification rate (%)” value rises from 80% to 84%.

Compared with CC1CC=C(c2ccc(=O)n(CC(=O)N3CCc4c(CNC5CCOC5)cccc43)n2)CC1 (centres unmarked) [Example 316], CC1CC=C(c2ccc(=O)n(CC(=O)N3CCc4c(CNC5CCOCC5)cccc43)n2)CC1 (centres unmarked) [Example 317] is lower in “Nav1.1 current amplification rate (%)” value: 81% for the first, 41% for the second.

Going from CC1CC=C(c2ccc(=O)n(CC(=O)N3CCc4cc(OCC(C)(C)O)ccc43)n2)CC1 (centres unmarked) [Example 320] to CC1CC=C(c2ccc(=O)n(CC(=O)Nc3ccc(C#N)nc3)n2)CC1 (centres unmarked) [Example 360], the “Nav1.1 current amplification rate (%)” value rises from 10% to 200%.

Going from CC1CC=C(c2ccc(=O)n(CC(=O)Nc3ccn4ncnc4c3)n2)CC1 (centres unmarked) [Example 330] to CC1CC=C(c2ccc(=O)n(CC(=O)Nc3ccc4ncnn4c3)n2)CC1 (centres unmarked) [Example 339], the “Nav1.1 current amplification rate (%)” value falls from 191% to 127%.

First: CC1CC=C(c2ccc(=O)n(CC(=O)Nc3ccc4c(cnn4C)c3)n2)CC1 (centres unmarked) [Example 336]
Second: CC1CC=C(c2ccc(=O)n(CC(=O)Nc3cnc4c(cnn4C)c3)n2)CC1 (centres unmarked) [Example 348]
The “Nav1.1 current amplification rate (%)” value of the first is higher: 68% for the first, 57% for the second.

Going from CC1CC=C(c2ccc(=O)n(CC(=O)Nc3cnc4nccn4c3)n2)CC1 (centres unmarked) [Example 337] to CC1CC=C(c2ccc(=O)n(CC(=O)Nc3ccc4nccn4c3)n2)CC1 (centres unmarked) [Example 343], the “Nav1.1 current amplification rate (%)” value falls from 52% to 44%.

Compared with CC1CC=C(c2ccc(=O)n(CC(=O)Nc3ccn4cncc4c3)n2)CC1 (centres unmarked) [Example 338], CC1CC=C(c2ccc(=O)n(CC(=O)Nc3ccc4cncn4c3)n2)CC1 (centres unmarked) [Example 344] is lower in “Nav1.1 current amplification rate (%)” value: 241% for the first, 69% for the second.

Going from CC1CC=C(c2ccc(=O)n(CC(=O)Nc3ccn4nncc4c3)n2)CC1 (centres unmarked) [Example 342] to CC1CC=C(c2ccc(=O)n(CC(=O)Nc3ccc4cnnn4c3)n2)CC1 (centres unmarked) [Example 345], the “Nav1.1 current amplification rate (%)” value rises from 109% to 232%.

Compared with CC1CC=C(c2ccc(=O)n(CC(=O)Nc3ccc4nccn4n3)n2)CC1 (centres unmarked) [Example 346], CC1CC=C(c2ccc(=O)n(CC(=O)Nc3ccc4ncnn4n3)n2)CC1 (centres unmarked) [Example 350] is lower in “Nav1.1 current amplification rate (%)” value: 96% for the first, 31% for the second.

First: Cc1nc2ccc(NC(=O)Cn3nc(C4=CCC(C)CC4)ccc3=O)cn2n1 (centres unmarked) [Example 347]
Second: Cc1cc(NC(=O)Cn2nc(C3=CCC(C)CC3)ccc2=O)cn2ncnc12 (centres unmarked) [Example 349]
The “Nav1.1 current amplification rate (%)” value of the first is lower: 37% for the first, 101% for the second.

Compared with Cc1cc(NC(=O)Cn2nc(C3=CCC(C)CC3)ccc2=O)cc2ncnn12 (centres unmarked) [Example 352], CC1CC=C(c2ccc(=O)n(CC(=O)Nc3ccn4cnnc4c3)n2)CC1 (centres unmarked) [Example 358] is lower in “Nav1.1 current amplification rate (%)” value: 155% for the first, 71% for the second.

Going from CC1CC=C(c2ccc(=O)n(CC(=O)Nc3ccc4nccnc4c3)n2)CC1 (centres unmarked) [Example 354] to CC1CC=C(c2ccc(=O)n(CC(=O)Nc3ccc4ncncc4c3)n2)CC1 (centres unmarked) [Example 355], the “Nav1.1 current amplification rate (%)” value rises from 123% to 130%.

In the case of CC1CC=C(c2ccc(=O)n(CC(=O)Nc3ccc4cncnc4c3)n2)CC1 (centres unmarked) [Example 356], the “Nav1.1 current amplification rate (%)” value is reported as 378%.

Same assay, conditions: Concentration for evaluation 3 μM; HEK293 cell line stably expressing human Nav1.1

Going from CC1CC=C(c2ccc(=O)n(CC(=O)N3CCc4cc(C5CN(C6COC6)C5)ccc43)n2)CC1 (centres unmarked) [Example 318] to CC1CC=C(c2ccc(=O)n(CC(=O)N3CCc4c(C5CN(C(=O)CO)C5)cccc43)n2)CC1 (centres unmarked) [Example 321], the “Nav1.1 current amplification rate (%)” value rises from 77% to 478%.

Going from CC1CC=C(c2ccc(=O)n(CC(=O)Nc3cccc(N4CCOCC4)c3F)n2)CC1 (centres unmarked) [Example 322] to CC1CC=C(c2ccc(=O)n(CC(=O)Nc3ccc4oc(CN5CCOCC5)nc4c3)n2)CC1 (centres unmarked) [Example 331], the “Nav1.1 current amplification rate (%)” value falls from 115% to 64%.

First: Cc1cc(NC(=O)Cn2nc(C3=CCC(C)CC3)ccc2=O)cc2ncoc12 (centres unmarked) [Example 323]
Second: Cc1nc2cc(NC(=O)Cn3nc(C4=CCC(C)CC4)ccc3=O)cnc2s1 (centres unmarked) [Example 326]
The “Nav1.1 current amplification rate (%)” value of the first is higher: 154% for the first, 132% for the second.

Compared with CC1CC=C(c2ccc(=O)n(CC(=O)Nc3ccc4oc(CN(C)C)nc4c3)n2)CC1 (centres unmarked) [Example 324], COCc1nc2cc(NC(=O)Cn3nc(C4=CCC(C)CC4)ccc3=O)ccc2o1 (centres unmarked) [Example 325] is higher in “Nav1.1 current amplification rate (%)” value: 50% for the first, 233% for the second.

Compared with CC1CC=C(c2ccc(=O)n(CC(=O)Nc3ccc4oc(C(C)(C)O)nc4c3)n2)CC1 (centres unmarked) [Example 327], CC1CC=C(c2ccc(=O)n(CC(=O)Nc3ccc4oc(CN5CCC5)nc4c3)n2)CC1 (centres unmarked) [Example 333] is lower in “Nav1.1 current amplification rate (%)” value: 124% for the first, 25% for the second.

First: CC1CC=C(c2ccc(=O)n(CC(=O)Nc3cc4nccn4cn3)n2)CC1 (centres unmarked) [Example 328]
Second: CC1CC=C(c2ccc(=O)n(CC(=O)Nc3ccn4cc(C5CC5)nc4c3)n2)CC1 (centres unmarked) [Example 334]
The “Nav1.1 current amplification rate (%)” value of the first is lower: 58% for the first, 255% for the second.

Going from Cc1nc2cc(NC(=O)Cn3nc(C4=CCC(C)CC4)ccc3=O)ccn2c1C (centres unmarked) [Example 329] to CC1CC=C(c2ccc(=O)n(CC(=O)Nc3ccn4c(C5CC5)cnc4c3)n2)CC1 (centres unmarked) [Example 335], the “Nav1.1 current amplification rate (%)” value rises from 100% to 187%.

For COC1CN(Cc2nc3cc(NC(=O)Cn4nc(C5=CCC(C)CC5)ccc4=O)ccc3o2)C1 (centres unmarked) [Example 332], the “Nav1.1 current amplification rate (%)” value was 15%.

Same assay, conditions: Concentration for evaluation 10 μM; HEK293 cell line stably expressing human Nav1.1

With CC1CC=C(c2ccc(=O)n(CC(=O)Nc3cc4nccn4cc3C#N)n2)CC1 (centres unmarked) [Example 359] the “Nav1.1 current amplification rate (%)” value was 26%.

Same assay, conditions: Concentration for evaluation 50 μM; HEK293 cell line stably expressing human Nav1.1

First: COCCCN1CC2(CCN(C(=O)Cn3nc(C4=CCC(C)CC4)ccc3=O)C2)C1 (centres unmarked) [Example 308]
Second: Cc1cc2nc(NC(=O)Cn3nc(C4=CCC(C)CC4)ccc3=O)ccn2n1 (centres unmarked) [Example 340]
The “Nav1.1 current amplification rate (%)” value of the first is lower: 9% for the first, 41% for the second.

Compared with CC1CC=C(c2ccc(=O)n(CC(=O)Nc3ccc4nncn4c3)n2)CC1 (centres unmarked) [Example 341], CC1CC=C(c2ccc(=O)n(CC(=O)Nc3ccc4ncccc4c3)n2)CC1 (centres unmarked) [Example 357] is lower in “Nav1.1 current amplification rate (%)” value: 202% for the first, 43% for the second.

Compared with Cc1cc2ncnn2cc1NC(=O)Cn1nc(C2=CCC(C)CC2)ccc1=O (centres unmarked) [Example 351], Cc1c(NC(=O)Cn2nc(C3=CCC(C)CC3)ccc2=O)ccc2ncnn12 (centres unmarked) [Example 353] is lower in “Nav1.1 current amplification rate (%)” value: 98% for the first, 32% for the second.
